Source: patent EP3586876A1, “GLUCOSE-SENSITIVE PEPTIDE HORMONES” (Gubra ApS, priority 2018, dated 2020)

Test: Hydrolysis of linkers with or without glucose present (half-life by LC-MS or UPLC)
Type: physicochemical
Conditions: pH 7.4, 37°C, 0.42 mM linker
Protocol: 1.3-1.8 mg of linkers was dissolved in 100 µL DMSO or 100 µL MeCN. 10 µL was taken out from the DMSO stock solution, diluted with 90µL DMSO and dissolved in 900 µL 1xPBS buffer containing 10 000 equiv glucose, pH 7.4 or 900 µL 1xPBS buffer pH 7.4, to give a final concentration of 0.42 mM of the linker. 10 µL was taken out from the MeCN stock solution, diluted with 40 µL MeCN and dissolved in 950 µL 1xPBS buffer containing 10 000 equiv glucose, pH 7.4 or 950 µL 1xPBS buffer pH 7.4 to give a final concentration of 0.42 mM of the linker. The samples were incubated at 37°C and continuously analysed by LC-MS or UPLC.

[1] = 10% DMSO in PBS buffer, 10.000 equiv Glc
[2] = 5% MeCN in PBS buffer, 10.000 equiv Glc

Structure (SMILES) | Half-life of the linker [1] [h] | Half-life of the linker (10% DMSO in PBS buffer, no Glc) [h] | Half-life of the linker [2] [h] | Half-life of the linker (5% MeCN in PBS buffer, no Glc) [h]
O=C(O)[C@@H]1CSC(c2ccccc2)N1 (some centres unmarked) [Linker 1] | 12 | >48 | – | –
COc1ccc(C2N[C@H](C(=O)O)CS2)cc1 (some centres unmarked) [Linker 2] | 2 | 4 | – | –
O=C(O)[C@@H]1CSC(c2ccccc2O)N1 (some centres unmarked) [Linker 3] | 0.5 | 2 | – | –
COc1ccc(C2N[C@H](C(=O)O)CS2)cc1O (some centres unmarked) [Linker 4] | 4 | 10 | – | –
O=C(O)[C@@H]1CSC(c2ccc([N+](=O)[O-])cc2)N1 (some centres unmarked) [Linker 5] | >24 | >72 | – | –
O=C(O)[C@@H]1CSC(Cc2ccccc2)N1 (some centres unmarked) [Linker 6] | 24 | >72 | – | –
O=C(OCc1ccccc1)[C@@H]1CSC(c2ccccc2)N1 (stereo partly drawn) [Linker 7, Benzyl (4R)-2-phenyl-1,3-thiazolidine-4-carboxylic acid] | >48 | – | >48 | –
COc1ccc(C2N[C@H](C(=O)OCc3ccccc3)CS2)cc1 (stereo partly drawn) [Linker 8, Benzyl (4R)-2-(4-methoxyphenyl)-1,3-thiazolidine-4-carboxylic acid] | 42 | – | 46 | –
COc1cccc(C2N[C@H](C(=O)OCc3ccccc3)CS2)c1 (stereo partly drawn) [Linker 9, Benzyl (4R)-2-(3-methoxyphenyl)-1,3-thiazolidine-4-carboxylic acid] | >72 | – | >72 | –
COc1ccccc1C1N[C@H](C(=O)OCc2ccccc2)CS1 (stereo partly drawn) [Linker 10, Benzyl (4R)-2-(2-methoxyphenyl)-1,3-thiazolidine-4-carboxylic acid] | 23 | – | 45 | –
CC(=O)Nc1ccc(C2N[C@H](C(=O)OCc3ccccc3)CS2)cc1 (stereo partly drawn) [Linker 11, Benzyl (4R)-2-(4-acetamidophenyl)-1,3-thiazolidine-4-carboxylic acid] | >72 | – | >72 | –
COc1ccc(C2OC[C@@H](C(=O)OCc3ccccc3)N2C(=O)OC(C)(C)C)cc1 (some centres unmarked) [Linker 13] | >72 | >72 | >72 | >72
CC(C)(C)OC(=O)N1C(c2ccccc2)OC[C@H]1C(=O)OCc1ccccc1 (some centres unmarked) [Linker 15] | >72 | >72 | >72 | >72
COC(=O)[C@@H]1OC(c2ccc(OC)cc2)O[C@H]1C(=O)OC [Linker 17] | 1.1 | 1.8 | 2.2 | 2.2
COC(=O)[C@@H]1OC(c2ccccc2OC)O[C@H]1C(=O)OC [Linker 19] | 1.5 | 1.7 | 2.5 | 2.5
